Patent publication US8148424B2, “Tocopherols, tocotrienols, other chroman and side chain derivatives and uses thereof” (Research Development Foundation, priority 1998, dated 2012)

Columns and labels:
[1] = test system: HT-29 Human Colon Cancer Cells Transplanted into Nude Mice; test: Preclinical chemotherapeutic xenograft study; type: in vivo; conditions: for Percent mean tumor weight gain (mg) following treatments: relative to day 1 of same group
Description: (§1) For the preclinical chemotherapeutic studies, in the absence of an maximum tolerated dose, the mice are supplemented with 30 and 20 mgs/0.1 ml by gavage daily for 21 days. Compound 1 is dissolved in 100% ethanol at 2 grams of compound 1/5 mls of ethanol, and diluted in peanut oil (nonsupplemented vitamin E) to yield 30 and 20 mgs of compound 1 per 0.1 ml. Vehicle control consisted of a mixture of ethanol and peanut oil equivalents. The preclinical chemotherapeutic studies are conducted with compound 1, utilizing human MDA-MB-435 human breast cancer cells, human DU-145 prostate cancer cells, and human HT-20 colon tumor cells transplanted into Balb/c immune compromised nude mice.
(§2) A total of 40 immune compromised nude mice are utilized for testing each test compound (two treatment groups at 20 and 30 mg/day) in each tumor cell type. […] Tumor cells are transplanted subcutaneously into the left flank and permitted to grow to approximately 70 mg in size, test compound treatments by daily gavage are initiated, and continue for a total of 21 days. Mice are monitored daily for tumor size by caliper measurements. Mice are treated for 21 days; however, the mice are sacrificed when the tumors of the vehicle control reached 500 mg in weight. At the completion of the protocol, tumors are excised and tumor size established by weight. At the time of sacrifice, serum, tumor, and heart muscle are taken from animals in the two compound 1 test groups in order to establish levels of compound 1 via HPLC analyses (data not included). The chemotherapeutic effectiveness of compound 1 administered daily at 30 and 20 mgs/day is determined by comparing the tumor size of the two treatment groups with the vehicle control group for each of the three tumor types, and by comparing the size of the tumor in the two treatment groups with the tumor group from the positive control. Treatment is for 21 days, experiments are continued until mean weight of tumor for vehicle control reaches 500 mgs.

[2] = test system: MDA-MB-435 Human Breast Cancer Cells Transplanted into Nude Mice; test: Preclinical chemotherapeutic xenograft study; type: in vivo; conditions: for Percent mean tumor weight gain (mg) following treatments: relative to day 1 of same group
Description: as §1, §2

[3] = test system: DU-145 Human Prostate Cancer Cells Transplanted into Nude Mice; test: Preclinical chemotherapeutic xenograft study; type: in vivo; conditions: for Percent mean tumor weight gain (mg) following treatments: relative to day 1 of same group
Description: as §1, §2

[4] = test system: MCF-7 cells; test: DNA synthesis arrest by 3H-uptake (Example 8); type: cell-based, human; conditions: Homo sapiens, MCF7, 5% serum, 3H-uptake at one day treatment
Description: (§3) MDA-MB-435 and MCF-7 cells at 1.5×10^5/well in 12 well plates for apoptosis and 1.5×10^4/well in 96 well plates for DNA synthesis arrest were incubated overnight in culture media and treated with α-tocopherol, α-tocotrinel, compound 1, 6-0-carboxymethyl alpha-tocotrienol (6-0-CM-α-T, 44), and vitamin E succinate (VES) at different concentrations in experimental media (2% serum for MDA-MB-435 cells and 5% serum for MCF-7 cells). DNA synthesis arrest was determined by ^3H-uptake at one day treatment and apoptosis was detected by DAPI staining at three day treatment. EC50 was calculated as the dosage of test compounds that gave 50% growth inhibition.

[5] = test system: MDA-MB-435 cells; test: DNA synthesis arrest by 3H-uptake (Example 8); type: cell-based, human; conditions: Homo sapiens; MDA-MB-435; 2% serum; 3H-uptake at one day treatment
Description: as §3

[6] = test system: MCF-7 cells; test: Apoptosis by DAPI staining (Example 8); type: cell-based, human; conditions: Homo sapiens, MCF7, 72 h, 5% serum, DAPI staining at three day treatment
Description: as §3

[7] = test system: MDA-MB-435 cells; test: Apoptosis by DAPI staining (Example 8); type: cell-based, human; conditions: Homo sapiens, 72 h; MDA-MB-435; 2% serum; DAPI staining at three day treatment
Description: as §3

[8] = 20 mg/day by gavage for 21 days, day 22
[9] = 30 mg/day by gavage for 21 days, day 22

SMILES: Cc1c(C)c2c(c(C)c1OCC(=O)O)CC[C@@](C)(CCC[C@H](C)CCC[C@H](C)CCCC(C)C)O2 [Compound 1, 2,5,7,8-tetramethyl-(2R-(4R,8R,12-trimethyltridecyl)chroman-6-yloxy)acetic acid]
- reduction of mean tumor weight vs vehicle control [1, 8]: 33.3%
- Mean tumor Weights (mg) Following Treatments ([1]; 20 mg/day gavage, day 1): 59.5 mg
- Percent mean tumor weight gain (mg) following treatments ([1]; 20 mg/day gavage, day 1): 100%
- Mean tumor Weights (mg) Following Treatments ([1]; 20 mg/day gavage, day 5): 84.0 mg
- Percent mean tumor weight gain (mg) following treatments ([1]; 20 mg/day gavage, day 5): 141.2%
- Mean tumor Weights (mg) Following Treatments ([1]; 20 mg/day gavage, day 8): 97.0 mg
- Percent mean tumor weight gain (mg) following treatments ([1]; 20 mg/day gavage, day 8): 163.0%
- Mean tumor Weights (mg) Following Treatments ([1]; 20 mg/day gavage, day 12): 124.6 mg
- Percent mean tumor weight gain (mg) following treatments ([1]; 20 mg/day gavage, day 12): 209.4%
- Mean tumor Weights (mg) Following Treatments ([1]; 20 mg/day gavage, day 15): 147.3 mg
- Percent mean tumor weight gain (mg) following treatments ([1]; 20 mg/day gavage, day 15): 247.6%
- Mean tumor Weights (mg) Following Treatments ([1]; 20 mg/day gavage, day 19): 198.0 mg
- Percent mean tumor weight gain (mg) following treatments ([1]; 20 mg/day gavage, day 19): 332.8%
- Mean tumor Weights (mg) Following Treatments ([1]; 20 mg/day gavage, day 22): 248.2 mg
- Percent mean tumor weight gain (mg) following treatments ([1]; 20 mg/day gavage, day 22): 417.1%
- reduction of mean tumor weight vs vehicle control [1, 9]: 34.5%
- Mean tumor Weights (mg) Following Treatments ([1]; 30 mg/day gavage, day 1): 40.0 mg
- Percent mean tumor weight gain (mg) following treatments ([1]; 30 mg/day gavage, day 1): 100%
- Mean tumor Weights (mg) Following Treatments ([1]; 30 mg/day gavage, day 5): 83.0 mg
- Percent mean tumor weight gain (mg) following treatments ([1]; 30 mg/day gavage, day 5): 139.5%
- Mean tumor Weights (mg) Following Treatments ([1]; 30 mg/day gavage, day 8): 96.7 mg
- Percent mean tumor weight gain (mg) following treatments ([1]; 30 mg/day gavage, day 8): 162.5%
- Mean tumor Weights (mg) Following Treatments ([1]; 30 mg/day gavage, day 12): 129.3 mg
- Percent mean tumor weight gain (mg) following treatments ([1]; 30 mg/day gavage, day 12): 217.3%
- Mean tumor Weights (mg) Following Treatments ([1]; 30 mg/day gavage, day 15): 144.1 mg
- Percent mean tumor weight gain (mg) following treatments ([1]; 30 mg/day gavage, day 15): 242.2%
- Mean tumor Weights (mg) Following Treatments ([1]; 30 mg/day gavage, day 19): 176.1 mg
- Percent mean tumor weight gain (mg) following treatments ([1]; 30 mg/day gavage, day 19): 296.0%
- Mean tumor Weights (mg) Following Treatments ([1]; 30 mg/day gavage, day 22): 243.8 mg
- Percent mean tumor weight gain (mg) following treatments ([1]; 30 mg/day gavage, day 22): 409.7%
- reduction of mean tumor weight vs vehicle control ([2]; 20 mg/day by gavage for 21 days, day 21): 20.7%
- Mean tumor Weights (mg) Following Treatments ([2]; 20 mg/day gavage, day 1): 70.1 mg
- Percent mean tumor weight gain (mg) following treatments ([2]; 20 mg/day gavage, day 1): 100%
- Mean tumor Weights (mg) Following Treatments ([2]; 20 mg/day gavage, day 4): 85.8 mg
- Percent mean tumor weight gain (mg) following treatments ([2]; 20 mg/day gavage, day 4): 122.4%
- Mean tumor Weights (mg) Following Treatments ([2]; 20 mg/day gavage, day 7): 123.9 mg
- Percent mean tumor weight gain (mg) following treatments ([2]; 20 mg/day gavage, day 7): 176.7%
- Mean tumor Weights (mg) Following Treatments ([2]; 20 mg/day gavage, day 10): 127.9 mg
- Percent mean tumor weight gain (mg) following treatments ([2]; 20 mg/day gavage, day 10): 182.5%
- Mean tumor Weights (mg) Following Treatments ([2]; 20 mg/day gavage, day 14): 147.2 mg
- Percent mean tumor weight gain (mg) following treatments ([2]; 20 mg/day gavage, day 14): 210.0%
- Mean tumor Weights (mg) Following Treatments ([2]; 20 mg/day gavage, day 17): 143.8 mg
- Percent mean tumor weight gain (mg) following treatments ([2]; 20 mg/day gavage, day 17): 205.1%
- Mean tumor Weights (mg) Following Treatments ([2]; 20 mg/day gavage, day 21): 179.4 mg
- Percent mean tumor weight gain (mg) following treatments ([2]; 20 mg/day gavage, day 21): 255.9%
- reduction of mean tumor weight vs vehicle control ([2]; 30 mg/day by gavage for 21 days, day 21): 44.6%
- Mean tumor Weights (mg) Following Treatments ([2]; 30 mg/day gavage, day 1): 68.1 mg
- Percent mean tumor weight gain (mg) following treatments ([2]; 30 mg/day gavage, day 1): 100%
- Mean tumor Weights (mg) Following Treatments ([2]; 30 mg/day gavage, day 4): 85.7 mg
- Percent mean tumor weight gain (mg) following treatments ([2]; 30 mg/day gavage, day 4): 125.8%
- Mean tumor Weights (mg) Following Treatments ([2]; 30 mg/day gavage, day 7): 97.3 mg
- Percent mean tumor weight gain (mg) following treatments ([2]; 30 mg/day gavage, day 7): 142.9%
- Mean tumor Weights (mg) Following Treatments ([2]; 30 mg/day gavage, day 10): 98.4 mg
- Percent mean tumor weight gain (mg) following treatments ([2]; 30 mg/day gavage, day 10): 144.5%
- Mean tumor Weights (mg) Following Treatments ([2]; 30 mg/day gavage, day 14): 126.6 mg
- Percent mean tumor weight gain (mg) following treatments ([2]; 30 mg/day gavage, day 14): 185.9%
- Mean tumor Weights (mg) Following Treatments ([2]; 30 mg/day gavage, day 17): 118.7 mg
- Percent mean tumor weight gain (mg) following treatments ([2]; 30 mg/day gavage, day 17): 174.3%
- Mean tumor Weights (mg) Following Treatments ([2]; 30 mg/day gavage, day 21): 125.2 mg
- Percent mean tumor weight gain (mg) following treatments ([2]; 30 mg/day gavage, day 21): 178.6%
- reduction of mean tumor weight vs vehicle control [3, 8]: 31.5%
- Mean tumor Weights (mg) Following Treatments ([3]; 20 mg/day gavage, day 1): 66.5 mg
- Percent mean tumor weight gain (mg) following treatments ([3]; 20 mg/day gavage, day 1): 100%
- Mean tumor Weights (mg) Following Treatments ([3]; 20 mg/day gavage, day 5): 103.5 mg
- Percent mean tumor weight gain (mg) following treatments ([3]; 20 mg/day gavage, day 5): 155.6%
- Mean tumor Weights (mg) Following Treatments ([3]; 20 mg/day gavage, day 8): 137.9 mg
- Percent mean tumor weight gain (mg) following treatments ([3]; 20 mg/day gavage, day 8): 207.4%
- Mean tumor Weights (mg) Following Treatments ([3]; 20 mg/day gavage, day 12): 208 mg
- Percent mean tumor weight gain (mg) following treatments ([3]; 20 mg/day gavage, day 12): 312.8%
- Mean tumor Weights (mg) Following Treatments ([3]; 20 mg/day gavage, day 15): 254.8 mg
- Percent mean tumor weight gain (mg) following treatments ([3]; 20 mg/day gavage, day 15): 383.2%
- Mean tumor Weights (mg) Following Treatments ([3]; 20 mg/day gavage, day 19): 362.2 mg
- Percent mean tumor weight gain (mg) following treatments ([3]; 20 mg/day gavage, day 19): 362.2%
- Mean tumor Weights (mg) Following Treatments ([3]; 20 mg/day gavage, day 22): 370.5 mg
- Percent mean tumor weight gain (mg) following treatments ([3]; 20 mg/day gavage, day 22): 544.7%
- reduction of mean tumor weight vs vehicle control [3, 9]: 24.8%
- Mean tumor Weights (mg) Following Treatments ([3]; 30 mg/day gavage, day 1): 67.8 mg
- Percent mean tumor weight gain (mg) following treatments ([3]; 30 mg/day gavage, day 1): 100%
- Mean tumor Weights (mg) Following Treatments ([3]; 30 mg/day gavage, day 5): 102.5 mg
- Percent mean tumor weight gain (mg) following treatments ([3]; 30 mg/day gavage, day 5): 151.2%
- Mean tumor Weights (mg) Following Treatments ([3]; 30 mg/day gavage, day 8): 131.3 mg
- Percent mean tumor weight gain (mg) following treatments ([3]; 30 mg/day gavage, day 8): 193.7%
- Mean tumor Weights (mg) Following Treatments ([3]; 30 mg/day gavage, day 12): 241.2 mg
- Percent mean tumor weight gain (mg) following treatments ([3]; 30 mg/day gavage, day 12): 355.8%
- Mean tumor Weights (mg) Following Treatments ([3]; 30 mg/day gavage, day 15): 256.8 mg
- Percent mean tumor weight gain (mg) following treatments ([3]; 30 mg/day gavage, day 15): 378.8%
- Mean tumor Weights (mg) Following Treatments ([3]; 30 mg/day gavage, day 19): 379.9 mg
- Percent mean tumor weight gain (mg) following treatments ([3]; 30 mg/day gavage, day 19): 379.9%
- Mean tumor Weights (mg) Following Treatments ([3]; 30 mg/day gavage, day 22): 407 mg
- Percent mean tumor weight gain (mg) following treatments ([3]; 30 mg/day gavage, day 22): 560.3%
- EC50 [4]: 20 µM
- EC50 [5]: 15 µM
- EC50 [6]: 36 µM
- EC50 [7]: 30 µM
